“Also recorded” adds a separate entry of the source. Ends that are not written are not given here.

In one test the test system is MDA-MB-231 cells. Kind of test: Mitotic arrest after live cell peptide transfection (Chariot) of MDA-MB-231 cells. In kind it is cell-based, human. Here is the method:
(§1) MCF-7 and MDA-MB-231 (ATCC) cells were maintained in 25 cm^2 tissue culture treated Corning flasks (Sigma-Aldrich) in DMEM complete medium with Glutamax-1 and supplemented with 10% fetal bovine serum. MCF-7 DMEM complete medium was additionally supplemented with 0.01 mg/mL bovine insulin (Sigma-Aldrich). Flasks were maintained at 37° C. in 5% CO2, 95% air, and cells were passaged every 5-7 days using 1 mL TrypLE (Life Technologies).
(§2) For live cell peptide transfection we used the Chariot system (Active Motif) according to the manufacturer's instructions. Cells were seeded into 35 mm tissue culture-treated dishes containing coverslips and grown in complete medium to ˜60% confluency. 1 μg of Kinesin-14 Tail peptide PγTR (GenScript) was diluted in 100 μL 1×PBS on ice. 6 μL of 1/10 PBS-diluted Chariot reagent was further diluted into 100 μL sterile water on ice in a separate tube. Diluted peptide and diluted Chariot were combined and incubated at room temperature for 30 minutes to allow the Chariot-peptide complex to form. Following incubation, media was aspirated from cells, which were then washed once in 1×PBS. The entire 200 μL volume was added to cells in 400 μL serum-free media and gently rocked to ensure even delivery. Plates were returned to 37° C. for 1 hr. Next, DMEM complete growth medium was added to 2 mL without removing the peptide delivery solution (108 μM peptide in 2 mL). Cells were further incubated at 37° C. overnight and fixed after 24 hours.
Human cells were fixed on glass coverslips in −20° C. methanol for 10 minutes, washed with 1×PBS and permeabilized in 0.5% Triton X-100 for 20 minutes. Following further washes, cells were blocked for 30 minutes in 1% bovine serum albumin/knock out serum replacement (BSA/KOSR). […]
(§3) For statistical analysis of phenotypes, n values were chosen as number of cells per strain needed to ensure adequate power to detect significant outcomes. […] For cell cycle arrest by 1 μg transfection of PγTR, 12 fields at 200× were counted. […]

A further test deals with T1, human γ-TuRC (Homo sapiens, UniProt P23258+Q9BSJ2).
T1 construct: All other samples use whole-cell extract from human breast cancer cells; endogenous in cells; host or cells: human breast cancer cells (whole-cell extract)
T1 sequence (P23258 whole entry): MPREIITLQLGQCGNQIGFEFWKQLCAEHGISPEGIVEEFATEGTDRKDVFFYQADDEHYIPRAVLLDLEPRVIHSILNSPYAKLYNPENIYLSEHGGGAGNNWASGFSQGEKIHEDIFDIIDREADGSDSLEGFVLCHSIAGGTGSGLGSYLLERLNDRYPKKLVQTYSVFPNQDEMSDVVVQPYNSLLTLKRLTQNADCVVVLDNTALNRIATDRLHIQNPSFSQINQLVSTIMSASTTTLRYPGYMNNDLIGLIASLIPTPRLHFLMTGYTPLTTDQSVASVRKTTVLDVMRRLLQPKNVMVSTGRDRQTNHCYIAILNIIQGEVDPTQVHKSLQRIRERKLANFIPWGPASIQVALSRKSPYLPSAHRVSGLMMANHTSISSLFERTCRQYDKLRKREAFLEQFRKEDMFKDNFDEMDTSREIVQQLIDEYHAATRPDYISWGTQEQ
T1 sequence (Q9BSJ2 whole entry): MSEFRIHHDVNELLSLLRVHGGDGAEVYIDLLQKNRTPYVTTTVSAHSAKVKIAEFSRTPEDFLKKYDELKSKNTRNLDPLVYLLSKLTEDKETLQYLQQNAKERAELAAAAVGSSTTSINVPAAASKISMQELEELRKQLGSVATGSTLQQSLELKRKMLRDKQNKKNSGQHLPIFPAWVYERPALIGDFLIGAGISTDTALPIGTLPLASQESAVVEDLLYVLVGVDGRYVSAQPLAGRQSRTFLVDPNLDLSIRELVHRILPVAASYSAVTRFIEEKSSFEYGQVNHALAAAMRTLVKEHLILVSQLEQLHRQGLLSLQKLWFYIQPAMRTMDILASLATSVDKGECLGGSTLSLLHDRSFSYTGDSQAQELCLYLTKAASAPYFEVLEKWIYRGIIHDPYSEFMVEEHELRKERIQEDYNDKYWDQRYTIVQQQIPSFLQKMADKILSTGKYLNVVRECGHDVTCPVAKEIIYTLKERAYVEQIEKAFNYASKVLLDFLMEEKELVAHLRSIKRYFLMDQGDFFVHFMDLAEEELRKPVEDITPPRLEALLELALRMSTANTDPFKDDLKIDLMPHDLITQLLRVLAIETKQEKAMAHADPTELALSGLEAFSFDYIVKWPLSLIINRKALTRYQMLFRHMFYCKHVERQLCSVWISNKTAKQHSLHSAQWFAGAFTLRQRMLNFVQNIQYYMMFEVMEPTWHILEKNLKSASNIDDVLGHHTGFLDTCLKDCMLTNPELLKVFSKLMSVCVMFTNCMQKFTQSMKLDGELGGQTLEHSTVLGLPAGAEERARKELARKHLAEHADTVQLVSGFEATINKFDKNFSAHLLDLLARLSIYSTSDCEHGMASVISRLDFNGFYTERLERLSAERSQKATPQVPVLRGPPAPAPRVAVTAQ
Kind of test: In vitro γ-TuRC microtubule nucleation assay. Conditions: whole-cell extract from human breast cancer cells; final peptide concentration 60 nM. In kind it is biochemical. On the procedure:
In vitro microtubule nucleation assays were performed in a total volume of 5 μL. That is, 3 μL for the sample and 2 μL of tubulin at a 1:5 ratio of Rhodamine:unlabeled tubulin (Cytoskeleton, Inc.). Total tubulin concentration was 3.75 μg/μL in 2.5× tubulin working buffer (2.5×BRB80: 200 mM PIPES, 2.5 mM MgCl2, 2.5 mM EGTA at pH 6.8 and 2.5 mM GTP). For whole cell extract nucleation analysis with peptide, 2 μL of whole cell extract was added with 1 μL of peptide at 300 nM for a final peptide concentration of 60 nM. This 3 μL combination was added first followed by tubulin working buffer. For samples with no peptide, the 5 μL final volume was comprised of 3 μL RIPA buffer and 2 μL of whole cell extract. The 5 μL reaction was combined on ice, quickly spun and returned to ice before incubating in a 37° C. water bath for 4 minutes. Sample incubation was staggered at 20 s intervals to allow for pipetting. After 4 minutes, 50 μL of 1% glutaraldehyde fixing solution was added and tubes were incubated at room temperature for 3 minutes. Samples were completed by addition of 1 mL 1×BRB80, inverting multiple times to mix. […] Images of multiple fields were collected and the average microtubule number per field was determined.

The test system of test [1] is human MCF-7 breast cancer cells. Kind of test: Mitotic arrest after live cell peptide transfection (Chariot) of MCF-7 cells. Type of test: cell-based. On the procedure: as §1, §2
Human cells were fixed on glass coverslips in −20° C. methanol for 10 minutes, washed with 1×PBS and permeabilized in 0.5% Triton X-100 for 20 minutes. Following further washes, cells were blocked for 30 minutes in 1% bovine serum albumin/knock out serum replacement (BSA/KOSR). For peptide localization to centrosomes, 1 μg/mL of peptide was applied after blocking and before primary antibody application. Antibodies used were primary mouse anti-γ-tubulin monoclonal (1:5,000; Sigma-Aldrich cat. T5326) or primary mouse anti-α-tubulin monoclonal DM1A (1:1,000; Santa Cruz Biotech cat. sc-32293), primary His-tag polyclonal antibody (1:1,000; Cell Signaling cat. 2365), secondary goat anti-mouse Alexa Fluor 488 IgG (1:1,000; Life Technologies cat. A-11001) and secondary goat anti-rabbit Texas Red (1:1,000; Life Technologies cat. T-6391). Antibodies were diluted in 1% BSA/KOSR antibody dilution buffer. […]
as §3

Test [2] has as its target human γ-TuRC (centrosome MTOC of human breast cancer cells) (human) (UniProt P23258). Kind of test: cell-based or functional assay.

human γ-TuRC (centrosome MTOC of human breast cancer cells) (human), sequence (P23258 whole entry, chain 1 of 2): as the sequence (P23258 whole entry) above
human γ-TuRC (centrosome MTOC of human breast cancer cells) (human), sequence (Q9BSJ2 whole entry, chain 2 of 2, further chain): as the sequence (Q9BSJ2 whole entry) above

In the case of “YSKFKESAAPQLKDLIGSGAEKDHEYSLQLQ (also: 6-His tag, end not given here) [PγTR, Kinesin-14 Pkl1 Tail peptide, γ-TuRC targeting and regulatory; used 6-His tagged]”, the “mitotic arrest (in words)” value in the test on MDA-MB-231 cells (MDA-MB-231 (high aggressiveness), live cell transfection) was “can mitotically arrest both the MCF-7 low and MDA-MB-231 high aggressive cell lines with similar efficiency”; in test [1] (MCF-7 (low aggressiveness), live cell transfection) it was “can mitotically arrest both the MCF-7 low and MDA-MB-231 high aggressive cell lines with similar efficiency”. The “share of cells receiving peptide that were arrested in mitosis” value in the test on MDA-MB-231 cells (MDA-MB-231, 24 h, value in brackets in FIG. 13G legend) was determined as 82%; in test [1] (MCF-7, 24 h, value in brackets in FIG. 13G legend), 90%. The “cells arrested in mitosis” value is given as 22.6% in the test with MDA-MB-231 cells (MDA-MB-231, 24 h after transfection with 1 μg peptide, arrested peptide-positive cells as percentage of entire population, 12 fields at 200×) and 39% in test [1] (MCF-7, 24 h after transfection with 1 μg peptide, arrested peptide-positive cells as percentage of entire population, 12 fields at 200×). Moreover, the “block of γ-TuRC microtubule nucleation (in words)” value with human γ-TuRC is on record as “potent inhibitor of nucleation; also recorded: blocks the γ-TuRC MTOC nucleation”. In test [1] (MCF-7 cells arrested by peptide, live cell transfection), the “spindle formation by α-tubulin staining” value was “No spindle formation”.
For “6-His tagged Kinesin-14 Tail peptide PγTR (γ-TuRC targeting and regulatory peptide)”, in test [2], the cells arrested in mitosis 24 hours after transfection, MCF-7 is 39% and the cells arrested in mitosis 24 hours after transfection, MDA-MB-231 was 22.6%.
